{
  "source": "patent EP4467141A1",
  "about": "“PYRAZOLO-QUINOLINES AS SELECTIVE INHIBITORS OF GENOTOXIC STRESS-INDUCED IKK/NF- KB PATHWAYS FOR CANCER THERAPY” (Max-Delbrück-Centrum für Molekulare Medizin in der …, priority 2023, dated 2024)",
  "test_system": "IKKγ",
  "test": "IKKγ phosphorylation (S85) and mono-ubiquitination after irradiation (immunoprecipitation / Western blot)",
  "type": "cell-based",
  "conditions": "irradiation (IR, 20 Gy); 1 hour pre-treatment",
  "protocol": "Fig.7: (A) Immunoprecipitation of IKKγ from HEK293 lysates pre-treated for 1 hour with DMSO, MW01 or MW05, then irradiated (IR, 20 Gy) and lysed. (B) Western blot analysis of MEF cells pre-treated with DMSO, MW01, MW05 or ATM inhibitor KU55933 and irradiated (IR, 20 Gy). Lysates were subjected to SDS-PAGE/WB. The specific IKKγ S85 band (lower band) was identified by induction following irradiation and by sensitivity to ATMi and λ- phosphatase (λ-PP) treatment. (C) Western blot analysis of U2os cells pre-treated for 1 hour with the indicated substances, irradiated (IR, 20 Gy) and whole cell lysates probed for poly(ADP)-ribose. (D) Western blot analysis of cytoplasmic and nuclear fractions from U2-OS cells for p-ATM (S 1981), after 1 hour pre-treatment with DMSO, MW01 (10 µM), or MW05 (10 µM) and 45 min following irradiation (IR, 20 Gy). PARP1 and LDHA are used as loading controls for nuclear and cytoplasmic fractions respectively. […]\nTo identify inhibitors that selectively prevent DNA damage-induced NF-κB activation, we established a high-throughput screening platform quantifying p65 nuclear translocation, an essential step in NF-κB activation (Hayden and Ghosh, 2008). […] The IC50s of p65 nuclear translocation following both stimuli were determined for 21 compounds. […]",
  "data": [
    {"smiles": "COc1ccc2c(c1OC)c(=O)n1c3ccc(O)cc3c3ccnc2c31", "note": "[MW01, 5-Hydroxy-10,11-dimethoxy-9H-benzo[c]indolo[3,2,1-ij][1,5]naphthyridin-9-one]", "values": [
      {"measurement": "IR-induced IKKy phosphorylation and mono-ubiquitination", "result": "inhibited"}
    ]},
    {"smiles": "COc1ccc2cc3c(N)nn(C(=O)c4cccc(N(C)C)c4)c3nc2c1", "note": "[MW05, (3-Amino-7-methoxypyrazolo[3,4-b]quinolin-1-yl)-[3-(dimethylamino)phenyl]methanone]", "values": [
      {"measurement": "IR-induced IKKy phosphorylation and mono-ubiquitination", "result": "inhibited"}
    ]}
  ]
}
